Assay [1] relates to a selection of other relevant receptors. To be noted: according to US2003/0171347A1, page 7, table2 and page 8, table 3; cited from earlier work.
Assay [2] concerns Obese Rats (DIO). In words: Chronical treatment of obese rats (DIO). To be noted: 50 mg/Kg i.p., one injection per day for 9 days, followed for 10 more days, compared to Saline, data only in Figures 1 to 4. In kind it is in vivo. The protocol:
Obese Rats (DIO) were treated for 9 days intraperitoneally (i.p.) one injection per day with Saline, with BD-1063 at 50 mg/Kg and PRE-084 at 25 mg /Kg, a well known […]. During that time each day and at some points during the following 10 days the weight giving the difference in weight (referring to the day of starting the treatment) was determined, as were the blood glucose levels, blood level of cholesterol, blood level of Triglycerides (TG).

With `CN(C)CCN(C)CCc1ccc(Cl)c(Cl)c1` [BD-1047, N1-(3,4-dichlorophenethyl)-N1,N2,N2-trimethylethane-1,2-diamine], in assay [1], the “binding to a selection of other relevant receptors” value is “no or only slight binding”. In the case of `CN1CCN(CCc2ccc(Cl)c(Cl)c2)CC1` [BD-1063, 1-(3,4-dichlorophenethyl)-4-methylpiperazine], the “effect on the weight (in weight difference), blood glucose levels, blood level of cholesterol, blood level of Triglycerides (TG)” value in assay [2] is reported as “highly effective”. For the same compound, the “binding to a selection of other relevant receptors” value in assay [1] is on record as “no or only slight binding”.
